This note sets out measurements from ChEMBL document CHEMBL5154696, “Efficient targeted oncogenic KRASG12C degradation via first reversible-covalent PROTAC” (Eur J Med Chem, 2022).

Assay [1] has as its target GTPase KRas (Homo sapiens, UniProt P01116, G12C). The assay is described as follows: Inhibition of KRAS G12C mutant (unknown origin) assessed as inhibition of SOS1-catalyzed nucleotide exchange measured by HTRF assay. (In general: TR-FRET usually uses a lanthanide donor and a delayed reading to cut background.)
Assay [2] relates to A549. The assay is described as follows: Antiproliferative activity against human A549 cells harboring KRAS G12S mutant measured after 72 hrs by CCK-8 assay. The following applies: A549, 72 h. In kind it is functional, cell-based. On the technique in general: Tetrazolium assays rely on reduction of a dye to a coloured formazan, in cell work by metabolically active cells.
The test system of assay [3] is NCI-H358. In words: Antiproliferative activity against human NCI-H358 cells harboring KRAS G12C mutant measured after 72 hrs by CCK-8 assay. In kind it is functional, cell-based. The following applies: NCI-H358, 72 h.
In assay [4] the test system is NCI-H23. The assay is described as follows: Antiproliferative activity against human NCI-H23 cells harboring KRAS G12C mutant measured after 72 hrs by CCK-8 assay. Format: functional, cell-based. The following applies: NCI-H23, 72 h.
The subject of assay [5] is GTPase KRas (Homo sapiens), P01116 [G12C]. In words: Reversible covalent binding affinity to KRAS G12C mutant (unknown origin) incubated for 2 hrs and measured by MALDI-TOF-MS analysis.
The target in assay [6] is T1, von Hippel-Lindau disease tumor suppressor/GTPase KRas (Homo sapiens, UniProt P01116+P40337, G12C). The assay is described as follows: Protac activity at VHL/KRAS G12C mutant in human NCI-H23 cells assessed as induction of KRAS G12C mutant degradation by measuring downregulation of phospho-ERK protein level measured after 24 hrs by Western blot analysis. Format: cell-based.

For assay [7], the target named is T1, von Hippel-Lindau disease tumor suppressor/GTPase KRas. In words: Protac activity at VHL/KRAS G12C mutant in human NCI-H23 cells assessed as induction of KRAS G12C mutant degradation by measuring downregulation of KRAS G12C protein level measured after 24 hrs by Western blot analysis. In kind it is cell-based. (In general: Immunoblotting shows a protein as a band on a membrane.)

Assay [8] deals with von Hippel-Lindau disease tumor suppressor/GTPase KRas (Homo sapiens), P01116+P40337 [G12C]. The assay is described as follows: Protac activity at VHL/KRAS G12C mutant in human NCI-H23 cells assessed as induction of KRAS G12C mutant degradation by measuring downregulation of phospho-ERK protein level at 3 uM measured after 24 hrs by Western blot analysis. In kind it is cell-based.

Assay [9] addresses T1, von Hippel-Lindau disease tumor suppressor/GTPase KRas. The assay is described as follows: Protac activity at VHL/KRAS G12C mutant in human NCI-H358 cells assessed as induction of KRAS G12C mutant degradation by measuring downregulation of phospho-ERK protein level measured after 24 hrs by Western blot analysis. Format: cell-based.
The target is the same in assay [10]. In words: Protac activity at VHL/KRAS G12C mutant in human NCI-H358 cells assessed as induction of KRAS G12C mutant degradation by measuring downregulation of KRAS G12C protein level measured after 24 hrs by Western blot analysis. Format: cell-based.
In assay [11] the test system is von Hippel-Lindau disease tumor suppressor/GTPase KRas (Homo sapiens), P01116+P40337 [G12C]. The assay is described as follows: Protac activity at VHL/KRAS G12C mutant in human NCI-H358 cells assessed as induction of KRAS G12C mutant degradation by measuring downregulation of KRAS G12C protein level at 3 uM measured after 24 hrs by Western blot analysis. In kind it is cell-based.

For assay [12] the test system is unchanged. In words: Protac activity at VHL/KRAS G12C mutant in human NCI-H358 cells assessed as induction of KRAS G12C mutant degradation by measuring downregulation of phospho-ERK protein level at 3 uM measured after 24 hrs by Western blot analysis. Format: cell-based.
Assay [13] has the same test system. The assay is described as follows: Protac activity at VHL/KRAS G12C mutant in human NCI-H358 cells assessed as induction of KRAS G12C mutant degradation by measuring downregulation of KRAS G12C protein level at 3 uM in presence of cycloheximide measured after 24 hrs by Western blot analysis. In kind it is cell-based.
Assay [14] has the same test system. In words: Protac activity at VHL/KRAS G12C mutant in human NCI-H23 cells assessed as induction of KRAS G12C mutant degradation by measuring downregulation of KRAS G12C protein level at 3 uM measured after 24 hrs by Western blot analysis. Format: cell-based.

Calls of active or inactive are those of the source. No cut-off for these calls is given here.

Broadly, the IC50 is the point on the concentration scale where inhibition reaches its midpoint. The term DC50 denotes the midpoint of the concentration-degradation curve.

Sequence of GTPase KRas (P01116 whole entry G12C): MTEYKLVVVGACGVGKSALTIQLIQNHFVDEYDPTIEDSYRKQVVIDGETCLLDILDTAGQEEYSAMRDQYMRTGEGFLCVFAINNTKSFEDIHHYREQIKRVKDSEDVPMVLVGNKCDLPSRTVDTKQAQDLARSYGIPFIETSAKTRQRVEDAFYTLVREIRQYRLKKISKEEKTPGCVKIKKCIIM
T1 sequence (P01116 whole entry G12C, stated change not applied): as the sequence (P01116 whole entry G12C) above
T1 sequence (P40337 whole entry, stated change not applied): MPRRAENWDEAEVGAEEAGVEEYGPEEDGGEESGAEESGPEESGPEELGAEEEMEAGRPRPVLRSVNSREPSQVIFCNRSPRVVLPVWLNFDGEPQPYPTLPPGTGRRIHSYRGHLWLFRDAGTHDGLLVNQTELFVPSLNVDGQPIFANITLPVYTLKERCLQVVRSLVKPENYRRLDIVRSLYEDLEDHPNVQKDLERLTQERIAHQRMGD
Sequence of GTPase KRas (Homo sapiens), P01116 [G12C] (P01116 whole entry G12C): as the sequence (P01116 whole entry G12C) above

On to `CC=C(C#N)C(=O)N1CCN(c2nc(OC[C@@H]3CCCN3C)nc3c2CCN(c2cccc4cccc(Cl)c24)C3)C[C@@H]1CC#N`, for which the IC50 in assay [1] is 0.0963 µM; in [2], 8.2 µM; in assay [3], 5.13 µM; in assay [4] it was 9.55 µM.

Turning to `CC(C)C=C(C#N)C(=O)N1CCN(c2nc(OC[C@@H]3CCCN3C)nc3c2CCN(c2cccc4cccc(Cl)c24)C3)C[C@@H]1CC#N`, the IC50 in [1] amounted to 0.284 µM; in assay [2] it was 50 µM; in [3], 13.7 µM; in [4] it was 3.15 µM.

Take `CN1CCC[C@H]1COc1nc2c(c(N3CCN(C(=O)C(C#N)=CC4CC4)[C@@H](CC#N)C3)n1)CCN(c1cccc3cccc(Cl)c13)C2`: the 50% inhibitory concentration (IC50) came to 0.0254 µM in [1], 13.3 µM in assay [2], 4.7 µM in [3] and 5.25 µM in assay [4]. Also, in assay [5], the outcome was Active.

Turning to `C=CC(=O)N1CCN(c2nc(=O)n(-c3c(C)ccnc3C(C)C)c3nc(-c4c(O)cccc4F)c(F)cc23)[C@@H](C)C1` [SOTORASIB], the concentration for half-maximal inhibition (IC50) in [2] is 50 µM; in [3], 0.0084 µM; in assay [4] it was 0.112 µM.

On to `CN1CCC[C@H]1COc1nc2c(c(N3CCN(C(=O)C(C#N)=CC(C)(C)C)[C@@H](CC#N)C3)n1)CCN(c1cccc3cccc(Cl)c13)C2`, for which the half-maximal inhibitory concentration (IC50) in [1] was found to be 0.64 µM; in assay [2], 16.1 µM; in assay [3], 0.796 µM; in [4] it was 6.33 µM.

Consider `Cc1ncsc1-c1ccc(CNC(=O)[C@@H]2C[C@@H](O)CN2C(=O)[C@@H](NC(=O)CCOCCCN2CCC[C@H]2COc2nc3c(c(N4CCN(C(=O)/C(C#N)=C/C5CC5)[C@@H](CC#N)C4)n2)CCN(c2cccc4cccc(Cl)c24)C3)C(C)(C)C)cc1`, for which the DC50 in [6] worked out at 1.44 µM; in [7] it was 4.53 µM; in assay [9] it was 1.68 µM; in assay [10] it was 3.61 µM. Also, the outcome in assay [8], in [11], in assay [12], in assay [13] and in assay [14] was Active. Further, the half-maximal inhibitory concentration (IC50) in [3] amounted to 0.154 µM; in assay [4], 0.244 µM.

Regarding `CCC=C(C#N)C(=O)N1CCN(c2nc(OC[C@@H]3CCCN3C)nc3c2CCN(c2cccc4cccc(Cl)c24)C3)C[C@@H]1CC#N`, the concentration for half-maximal inhibition (IC50) stood at 0.271 µM in [1], 25.3 µM in assay [2], 13.4 µM in assay [3] and 7.4 µM in assay [4].
